Laboratory results taken from ChEMBL document CHEMBL3227996, “New bronchodilators. Synthesis and bronchodilating activity of some 3-(alkoxymethyl)-alpha-(N-substituted aminomethyl)-4-hydroxybenzyl alcohols” (1979).

Assays:
Assay type in all cases: functional
[1] = system: Cavia porcellus; assay: Inhibition of histamine-induced asthma-like syndrome in guinea pig assessed as time delay in appearance of anoxia at 1.25 mg/kg, po treated 30 mins before histamine challenge (reference value: 5.08 mins)
[2] = system: Cavia porcellus; assay: Inhibition of histamine-induced asthma-like syndrome in guinea pig assessed as time delay in appearance of coughing at 1.25 mg/kg, po treated 30 mins before histamine challenge (reference value: 6.13 mins)
[3] = system: Cavia porcellus; assay: Inhibition of histamine-induced asthma-like syndrome in guinea pig assessed as time delay in appearance of anoxia at 5 mg/kg, po treated 30 mins before histamine challenge (reference value: 5.08 mins)
[4] = system: Cavia porcellus; assay: Inhibition of histamine-induced asthma-like syndrome in guinea pig assessed as time delay in appearance of coughing at 5 mg/kg, po treated 30 mins before histamine challenge (reference value: 6.13 mins)
[5] = system: Cavia porcellus; assay: Inhibition of histamine-induced airway resistance in guinea pig administered intravenously 3 mins before histamine challenge; details: iv

Compound: COCc1cc(C(O)CNC(C)C)cc(COC)c1O.Cl (configuration not stated)
- Time [1]: 10.71 min
- Time [2]: 11 min

Compound: COCc1cc(C(O)CNC(C)Cc2ccc(O)cc2)ccc1O.O=C(O)C(=O)O (configuration not stated)
- Time [1]: 19.97 min
- Time [2]: 20 min

Compound: COCCOCc1cc(C(O)CNC(C)(C)C)ccc1O.Cl (configuration not stated)
- Time [1]: 6.75 min
- Time [3]: 13.8 min
- Time [2]: 7.88 min
- Time [4]: 15.18 min

Compound: CCOCc1cc(C(O)CNC(C)C)ccc1O.Cl (configuration not stated)
- Time [3]: 9.23 min
- Time [4]: 14.03 min

Compound: COCc1cc(C(O)CNC(C)Cc2ccccc2)ccc1O.Cl (configuration not stated)
- Time [3]: 9.61 min
- Time [4]: 11.65 min

Compound: COCc1cc(C(O)CNC(C)Cc2ccc3c(c2)OCO3)ccc1O.O=C(O)C(=O)O (configuration not stated)
- Time [1]: 10.43 min
- Time [2]: 12.05 min

Compound: CCOCCOCc1cc(C(O)CNC(C)(C)C)ccc1O.Cl (configuration not stated)
- Time [1]: 10.58 min
- Time [3]: 8.97 min
- Time [2]: 11.81 min
- Time [4]: 14.08 min

Compound: COCc1cc(C(O)CNC(C)C)ccc1O.Cl (configuration not stated)
- Time [3]: 10.38 min
- Time [4]: 15.25 min

Compound: COCCOCc1cc(C(O)CNC(C)C)ccc1O.Cl (configuration not stated)
- Time [3]: 8.8 min
- Time [4]: 9.7 min

Compound: COCc1cc(C(O)CNC(C)(C)C)ccc1O.Cl (configuration not stated)
- Time [1]: 17.17 min
- Time [2]: 20 min

Compound: CCOCc1cc(C(O)CNC(C)Cc2ccccc2)ccc1O.Cl (configuration not stated)
- Time [3]: 12.57 min
- Time [4]: 13.92 min

Compound: COCc1cc(C(O)CNC(C)(C)C)cc(COC)c1O.Cl (configuration not stated)
- Time [1]: 7.35 min
- Time [2]: 7.78 min

Compound: COCc1cc(C(O)CNC(C)(C)Cc2ccccc2)ccc1O.Cl (configuration not stated)
- Time [3]: 11.35 min
- Time [4]: 11.83 min

Compound: CC(C)(C)NCC(O)c1ccc(O)c(COCCO)c1.Cl (configuration not stated)
- Time [3]: 4.98 min
- Time [4]: 5.97 min

Compound: CCOCc1cc(C(O)CNC(C)(C)C)ccc1O.Cl (configuration not stated)
- Time [1]: 14.55 min
- Time [2]: 14.85 min

Compound: CCOCc1cc(C(O)CNC(C)(C)Cc2ccccc2)ccc1O.Cl (configuration not stated)
- Time [3]: 15.98 min
- Time [4]: 16.08 min

Compound: COCc1cc(C(O)CNC(C)Cc2ccc(OC)cc2)ccc1O.O=C(O)/C=C/C(=O)O (configuration not stated)
- Time [1]: 19.1 min
- Time [2]: 20 min
- ED50 [5]: 2.75 µg/kg

Compound: CC(C)(C)NCC(O)c1ccc(O)c(CO)c1 (configuration not stated) [ALBUTEROL]
- Time [1]: 8.1 min
- Time [3]: 17.22 min
- Time [2]: 9.68 min
- Time [4]: 19.13 min

Compound: CC(C)NCC(O)c1ccc(O)c(O)c1 (configuration not stated) [ISOPROTERENOL]
- Time [1]: 6.82 min
- Time [3]: 12.71 min
- Time [2]: 8.02 min
- Time [4]: 17.67 min
